Laboratory results taken from article PMC11792066, “Development of benzofuran-derived sulfamates as dual aromatase-steroid sulfatase inhibitors (DASIs): design, synthesis and biological evaluation” (RSC Medicinal Chemistry, 2025).
Values joined by “and” are separate entries in the source; they are usually repeats but may differ in a detail not shown here. Identical values can stand only once. Like-named read-outs stand apart in the source and are kept apart here.

How the values were obtained:
aromatase (CYP19A1) = target: T1, aromatase (CYP19A1) (Homo sapiens, UniProt P11511); assay: Aromatase activity assay, modified tritiated water assay in JEG-3 cells; format: cell-based; details: 1 h incubation, triplicate
T1 construct: host or cells: JEG-3 cells
T1 sequence (P11511 1-503): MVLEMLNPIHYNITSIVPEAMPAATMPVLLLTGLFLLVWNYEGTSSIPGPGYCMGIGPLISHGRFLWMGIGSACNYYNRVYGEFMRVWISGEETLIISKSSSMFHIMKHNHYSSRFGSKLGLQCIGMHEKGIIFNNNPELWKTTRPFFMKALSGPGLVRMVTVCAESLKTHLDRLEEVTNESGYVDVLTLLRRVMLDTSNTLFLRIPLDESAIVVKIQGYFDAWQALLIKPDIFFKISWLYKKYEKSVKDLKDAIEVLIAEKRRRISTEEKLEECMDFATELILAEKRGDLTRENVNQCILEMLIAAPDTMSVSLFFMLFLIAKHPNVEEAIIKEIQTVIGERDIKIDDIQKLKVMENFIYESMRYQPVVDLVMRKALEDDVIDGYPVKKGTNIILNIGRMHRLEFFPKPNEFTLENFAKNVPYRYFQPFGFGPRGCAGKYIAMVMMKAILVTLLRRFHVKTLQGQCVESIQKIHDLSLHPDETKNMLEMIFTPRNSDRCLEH
Procedure: Seven compounds including the two carbamate side products were investigated for their aromatase inhibitory activity at 10 nM using the previously reported modified tritiated water assay.[20]
(§1) JEG-3 cells (ATCC) were cultured in Eagle's minimal essential medium (EMEM) supplemented with 10% fetal calf serum (FCS). The cells were maintained at 37 °C in a humidified incubator with 5% CO2. Then, the cells were cultured to approximately 80% confluence before any treatments were applied.
The aromatase activity was measured using a modified tritiated water assay. The JEG-3 cells were cultured in six-well plates in EMEM until reaching 80% confluence. The substrate androst-4-ene-3,17-dione [1β-^3H] was added to each well in a serum-free medium. In the presence and absence of dual inhibitors (at concentrations ranging from 0.001 to 10 nM), the cells were incubated at 37 °C for 1 hour. The reaction was stopped by placing the plates on ice for 5 minutes. The medium (500 μL) was obtained, vortexed with 2% dextran-treated charcoal in PBS, and centrifuged at 4000 rpm. [^3H]H2O in the supernatant was quantified using scintillation counting. The aromatase activity was normalized to protein concentration, determined by the Pierce BCA assay kit (Thermo Fisher Scientific), and expressed as pmol of product per mg of protein per hour.

steroid sulfatase (STS) = target: T2, steroid sulfatase (STS) (Homo sapiens, UniProt P08842); assay: Steroid sulfatase activity assay, cell-free JEG-3 lysate, [3H]oestrone sulfate substrate; format: biochemical; details: for IC50: 20 μM E1S, 37 °C, 1 h, triplicate
T2 construct: lysates from JEG-3 cells, known to have high endogenous STS activity; host or cells: JEG-3 cell lysate (supernatant after centrifugation)
T2 sequence (P08842 22-583): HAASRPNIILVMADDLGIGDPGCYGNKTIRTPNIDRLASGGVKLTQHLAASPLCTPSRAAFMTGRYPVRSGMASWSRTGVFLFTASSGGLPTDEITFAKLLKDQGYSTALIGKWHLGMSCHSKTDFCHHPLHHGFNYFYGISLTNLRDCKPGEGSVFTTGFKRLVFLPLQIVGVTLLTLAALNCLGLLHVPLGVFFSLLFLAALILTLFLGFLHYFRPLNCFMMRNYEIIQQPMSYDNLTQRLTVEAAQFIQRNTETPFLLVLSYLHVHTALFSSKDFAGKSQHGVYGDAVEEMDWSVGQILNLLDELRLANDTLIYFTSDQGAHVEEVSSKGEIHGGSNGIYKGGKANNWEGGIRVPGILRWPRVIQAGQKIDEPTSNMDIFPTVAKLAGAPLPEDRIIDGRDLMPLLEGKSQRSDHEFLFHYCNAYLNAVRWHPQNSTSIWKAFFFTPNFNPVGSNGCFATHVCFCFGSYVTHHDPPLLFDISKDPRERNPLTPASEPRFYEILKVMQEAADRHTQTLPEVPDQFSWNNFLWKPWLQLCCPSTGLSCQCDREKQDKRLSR
Procedure: as §1
STS activity was measured using an in vitro, cell-free assay. Briefly, lysates from JEG-3 cells, known to have high endogenous STS activity, were prepared by lysing the cells with a buffer (50 mM Tris-HCl, pH 7.4, and 1 mM EDTA). After centrifugation, the supernatant was collected and protein concentrations were determined using a BCA assay kit.
For the steroid sulfatase assay, 125 μg of JEG-3 lysate was incubated with the substrate [^3H]oestrone sulfate (E1S, 4 × 10^5 dpm) diluted to a final concentration of 20 μM using non-radioactive E1S. The mixture was incubated in the presence of different concentrations of inhibitors (ranging from 10^−11 M to 10^−5 M) at 37 °C for 1 hour. After incubation, the reaction was stopped by placing the tubes on ice, and the estrone product formed was separated from the substrate by extraction with toluene. [^14C]oestrone was added to the organic phase as an internal standard to monitor recovery and procedural losses.
The organic phase was subjected to liquid scintillation counting to measure both ^3H and ^14C. The amount of E1S hydrolysed was calculated from the ^3H counts, corrected for recovery using the ^14C standard, and converted into molar concentrations of hydrolysed product. The inhibitory activity of test compounds was expressed as the IC50 value, representing the concentration required to inhibit 50% of the STS activity.

[1] = JEG-3 cells, read-out: Arom IC50

Row | SMILES | IC50 (aromatase (CYP19A1); [1]) [nM] | STS inhibitory activity (in words) (steroid sulfatase (STS)) | IC50 (aromatase (CYP19A1); Arom IC50, JEG-3 cells) [nM] | IC50 (steroid sulfatase (STS))
1 | NS(=O)(=O)Oc1ccc(C(c2cc3cc(Cl)ccc3o2)n2cncn2)cc1 (stereo not drawn) [8a, 4-((5-Chlorobenzofuran-2-yl)(1H-1,2,4-triazol-1-yl)methyl)phenyl sulfamate] | > 10 | neither the triazole sulfamates (6, 7, 8a, 9, 10a) nor the triazole carbamates (8b, 10b) displayed STS inhibitory activity | – | –
2 | NC(=O)Oc1ccc(C(c2cc3cc(Cl)ccc3o2)n2cncn2)cc1 (stereo not drawn) [8b] | – | neither the triazole sulfamates (6, 7, 8a, 9, 10a) nor the triazole carbamates (8b, 10b) displayed STS inhibitory activity | 4.1 | –
3 | N#Cc1ccc(C(c2cc3ccc(OS(N)(=O)=O)cc3o2)n2cncn2)cc1 (stereo not drawn) [10a, 2-((4-Cyanophenyl)(1H-1,2,4-triazol-1-yl)methyl)benzofuran-6-yl sulfamate] | 1.52 | neither the triazole sulfamates (6, 7, 8a, 9, 10a) nor the triazole carbamates (8b, 10b) displayed STS inhibitory activity | – | –
4 | N#Cc1ccc(C(c2cc3ccc(OC(N)=O)cc3o2)n2cncn2)cc1 (stereo not drawn) [10b, 2-((4-Cyanophenyl)(1H-1,2,4-triazol-1-yl)methyl)benzofuran-6-yl carbamate] | – | neither the triazole sulfamates (6, 7, 8a, 9, 10a) nor the triazole carbamates (8b, 10b) displayed STS inhibitory activity | 0.65 | –
5 | NS(=O)(=O)Oc1ccc2cc(C(=O)c3ccc(F)cc3)oc2c1 [18a, 2-(4-Fluorobenzoyl)benzofuran-6-yl sulfamate] | > 1000 | – | – | 740 nM
6 | NS(=O)(=O)Oc1ccc2cc(C(=O)c3ccc(Cl)cc3)oc2c1 [18b, 2-(4-Chlorobenzoyl)benzofuran-6-yl sulfamate] | > 1000 | – | – | 410 nM
7 | NS(=O)(=O)Oc1ccc2cc(C(=O)c3ccc(Br)cc3)oc2c1 [18c, 2-(4-Bromobenzoyl)benzofuran-6-yl sulfamate] | > 1000 | – | – | 510 nM
8 | NS(=O)(=O)Oc1ccc2cc(C(=O)c3ccc(Cl)cc3Cl)oc2c1 [18d, 2-(2,4-Dichlorobenzoyl)benzofuran-6-yl sulfamate] | > 1000 | – | – | 310 nM
9 | COc1ccc(C(=O)c2cc3ccc(OS(N)(=O)=O)cc3o2)cc1 [18e, 2-(4-Methoxybenzoyl)benzofuran-6-yl sulfamate] | > 1000 | – | – | 115 nM
10 | N#Cc1ccc(C(=O)c2cc3ccc(OS(N)(=O)=O)cc3o2)cc1 [18f, 2-(4-Cyanobenzoyl)benzofuran-6-yl sulfamate] | > 1000 | – | – | 280 nM
11 | Cc1c(C(=O)c2ccc(F)cc2)oc2cc(OS(N)(=O)=O)ccc12 [19a, 2-(4-Fluorobenzoyl)-3-methylbenzofuran-6-yl sulfamate] | 50 | – | – | 654 nM
12 | Cc1c(C(=O)c2ccc(Cl)cc2)oc2cc(OS(N)(=O)=O)ccc12 [19b, 2-(4-Chlorobenzoyl)-3-methylbenzofuran-6-yl sulfamate] | 137 | – | – | 48 nM
13 | Cc1c(C(=O)c2ccc(Br)cc2)oc2cc(OS(N)(=O)=O)ccc12 [19c, 2-(4-Bromobenzoyl)-3-methylbenzofuran-6-yl sulfamate] | 22 | – | – | 830 nM
14 | Cc1c(C(=O)c2ccc(Cl)cc2Cl)oc2cc(OS(N)(=O)=O)ccc12 [19d, 2-(2,4-Dichlorobenzoyl)-3-methylbenzofuran-6-yl sulfamate] | 20 | – | – | 1500 nM
15 | COc1ccc(C(=O)c2oc3cc(OS(N)(=O)=O)ccc3c2C)cc1 [19e, 2-(4-Methoxybenzoyl)-3-methylbenzofuran-6-yl sulfamate] | 35 | – | – | 164 nM
16 | N#Cc1ccc(C(c2ccc(C#N)cc2)n2cncn2)cc1 [Letrozole, reference compound] | – | – | – | > 1000 nM
17 | NS(=O)(=O)Oc1ccc2c3c(c(=O)oc2c1)CCCCC3 [STX64, Irosustat, reference compound] | > 1000 | – | – | –
18 | NS(=O)(=O)Oc1ccc2cc(C(c3ccc(Cl)cc3)n3cncn3)oc2c1 (stereo not drawn) [compound 6, 2-((4-Chlorophenyl)(1H-1,2,4-triazol-1-yl)methyl)benzofuran-6-yl sulfamate] | 1.4 | neither the triazole sulfamates (6, 7, 8a, 9, 10a) nor the triazole carbamates (8b, 10b) displayed STS inhibitory activity | – | –
19 | NS(=O)(=O)Oc1ccc2oc(C(c3ccc(Cl)cc3)n3cncn3)cc2c1 (stereo not drawn) [compound 7, 2-((4-Chlorophenyl)(1H-1,2,4-triazol-1-yl)methyl)benzofuran-5-yl sulfamate] | 5.49 | neither the triazole sulfamates (6, 7, 8a, 9, 10a) nor the triazole carbamates (8b, 10b) displayed STS inhibitory activity | – | –
20 | NS(=O)(=O)Oc1ccc2cc(C(c3ccc(F)cc3)n3cncn3)oc2c1 (stereo not drawn) [compound 9, 2-((4-Fluorophenyl)(1H-1,2,4-triazol-1-yl)methyl)benzofuran-6-yl sulfamate] | 8.4 | neither the triazole sulfamates (6, 7, 8a, 9, 10a) nor the triazole carbamates (8b, 10b) displayed STS inhibitory activity | – | –
21 | NC(=O)Oc1ccc2cc(C(=O)c3ccc(Cl)cc3)oc2c1 [compound 20, 2-(4-Chlorobenzoyl)benzofuran-6-yl carbamate] | ≥ 1000 | – | – | ≥ 1000 nM and 1220 nM
22 | Cc1c(C(=O)c2ccc(Cl)cc2)oc2cc(OC(N)=O)ccc12 [compound 21, 2-(4-Chlorobenzoyl)-3-methylbenzofuran-6-yl carbamate] | ≥ 1000 | – | – | ≥ 1000 nM and 980 nM
